Results on 5 compounds are retold here after article PMC7126984 (International Journal of Antimicrobial Agents, 2008).

Data set [1] deals with Japanese encephalitis virus (JEV) strain T1P1. The data set is described as follows: Plaque reduction assay, JEV in TE-671 cells. The note with it: for TI (ratio of CC50 to IC50): JEV, TE-671 cells; for IC50: Japanese encephalitis virus; for inhibition of JEV replication in cell culture assay: dose-dependent plaque reduction assay. A general note: Plaques are areas of infected cells; plaque reduction assays count them against a control.

Data set [2] concerns human protein kinase R (PKR) mRNA. The data set is described as follows: Real-time RT-PCR of PKR mRNA in HL-CZ cells. The note with it: 1 μg/mL, normalised to GAPDH, vs untreated cells. Format: cell-based. For orientation: Quantitative PCR measures a nucleic acid by following its amplification.
Data set [3] concerns nitric oxide (NO) production. Briefly: NO production by DAF-2 DA fluorescence in HL-CZ cells. Format: cell-based, human. The note with it: compared with the control and shikonin.
Data set [4] can be described thus: MTT cytotoxicity test in TE-671 cells. The note with it: human, TE-671 medulloblastoma cells. In general terms: Formazan colour is commonly taken as a measure of viable cells.
The nature of data set [5]: MTT cytotoxicity test in HL-CZ cells. The note with it: human, HL-CZ promonocyte cells.
Another data set relates to rhinovirus. The note with it: cited from earlier work.
In data set [6] the test system is 2′,5′-oligoadenylate synthetase (OAS) mRNA. Briefly: Real-time RT-PCR of OAS mRNA in HL-CZ cells. Format: cell-based, human. The note with it: 1 μg/mL, normalised to GAPDH, vs untreated cells.
The test system of data set [7] is Japanese encephalitis virus (JEV) strain T1P1. The data set is described as follows: Plaque reduction assay, JEV in HL-CZ cells. The note with it: for TI (ratio of CC50 to IC50): JEV, HL-CZ cells; for IC50: Japanese encephalitis virus, 48 h.
Data set [8] deals with enterovirus 71 (EV71). Briefly: Plaque reduction assay, EV71 in TE-671 cells. The note with it: for IC50: Enterovirus A.
In data set [9] the test system is gamma-activated sequence (GAS) promoter. Briefly: Dual-luciferase cis-reporter assay pGAS-Luc in HL-CZ cells. Format: cell-based, human. The note with it: 1 μg/mL, 4 h, normalised by Renilla luciferase, vs untreated cells.
Data set [10] deals with interferon-stimulated response element (ISRE) promoter. Briefly: Dual-luciferase cis-reporter assay pISRE-Luc in HL-CZ cells. Format: cell-based, human. The note with it: 1 μg/mL, 4 h, normalised by Renilla luciferase, vs untreated cells.
The test system of data set [11] is enterovirus 71 (EV71). The data set is described as follows: Plaque reduction assay, EV71 in HL-CZ cells.
Another data set deals with IFNα expression. Briefly: ELISA for detection of IFNα expression in TE-671 cells. Format: cell-based, human. The note with it: 48 h incubation.
Data set [12] relates to TE-671 medulloblastoma cells. The data set is described as follows: MTT cytotoxicity test in TE-671 cells. The note with it: TE-671 cells, 48 h treatment, MTT assay.
Setting [13] is: 1 μg/mL, TE-671 and HL-CZ cells, 12, 24 and 48 h.

The structures appear in SMILES notation. ≈ marks a conversion by molar mass, not a printed value.

For `O=C1c2cccc(O)c2C(=O)c2c(O)cc(CO)cc21` [Aloe-emodin, 1,8-dihydroxy-3-hydroxymethyl-anthraquinone], the “time-dependent inhibition of JEV replication” value in data set [1] (setting [13]) was “significantly inhibited”. The “TI (ratio of CC50 to IC50)” value in data set [1] is 1743; in [7] it was 5762; with enterovirus 71 (EV71) [8] (EV71, TE-671 cells) it was 18 800; in the data set with enterovirus 71 (EV71) [11] (EV71, HL-CZ cells), 5540. Besides, the half-inhibitory concentration (IC50) (in general, the concentration at which inhibition is half-maximal) in data set [1] (TE-671, 48 h) was 1.51 ± 0.05 µg/mL (≈ 5.59 µM); in [1] (TE-671, read-out: IC50 for JEV), 0.5 to 1.51 µg/mL (≈ 1.85 to 5.59 µM); in [7] it was 0.5 ± 0.02 µg/mL (≈ 1.85 µM); in the data set with enterovirus 71 (EV71) [8] (EV71, TE-671, 48 h), 0.14 ± 0.04 µg/mL (≈ 0.518 µM); in the data set with enterovirus 71 (EV71) [8] (EV71, TE-671, read-out: IC50 for EV71), 0.14 to 0.52 µg/mL (≈ 0.518 to 1.92 µM); with enterovirus 71 (EV71) [11] (Enterovirus A, EV71, 48 h) it was 0.52 ± 0.03 µg/mL (≈ 1.92 µM). For the same compound, the “inhibition of JEV replication in cell culture assay” value (shortened to “inhibition … in cell culture assay”) in data set [1] is reported as “dose-dependent inhibition”. In [1] (over TE-671 and HL-CZ cells), the “therapeutic index (TI) for anti-JEV activity” value was greater than 1500. In data set [2], the “increase of PKR mRNA” value is 1294.4 fold. Besides, in [3], the “NO production (DAF signal)” value is “greater DAF signal”. The figures for the CC50 at 48 h in data set [4] and in data set [5] were 2630 µg/mL (≈ 9740 µM) and 2880 µg/mL (≈ 10700 µM), respectively. Moreover, in the data set on rhinovirus, the “antiviral effect on the replication of rhinovirus” value is on record as “no antiviral effect”. Further, the “increase of OAS mRNA” value in data set [6] stood at 8.6 fold. Also, the “time-dependent inhibition of EV71 replication” value with enterovirus 71 (EV71) [8] (setting [13]) was “significantly inhibited”. For the same compound, in the data set with enterovirus 71 (EV71) [8] (over TE-671 and HL-CZ cells), the “therapeutic index (TI) for anti-EV71 activity” value was greater than 5000. Moreover, in [9], the “increase of promoter activity of pGAS-Luc” value is listed as roughly 2.03 fold. For the same compound, the “increase of promoter activity of pISRE-Luc” value in data set [10] is on record as “ca. 2.14 fold”. Also, the “increase in IFNα expression” value in the data set on IFNα expression was determined as 2.5 fold. Also, the “level of IFNα expression, dose dependence” value (from here on “level of IFNα expression”) with IFNα expression was “dose-dependent increase”.
For `COC(=O)C1=CCCN(C)C1` [Arecoline, arecoline], the “TI (ratio of CC50 to IC50)” value in data set [1] is greater than 92.3; in data set [7] it was greater than 285.7. Moreover, the IC50 in data set [1] (TE-671, 48 h) turned out to be 32.5 ± 0.4 µg/mL (≈ 209 µM); in data set [7], 10.5 ± 0.3 µg/mL (≈ 67.7 µM). Further, in data set [1], the “inhibition … in cell culture assay” value is listed as “dose-dependent inhibition”. In data set [3], the “NO production (DAF signal)” value was “greater DAF signal”. Moreover, the CC50 at 48 h in [4] and in data set [5] was greater than 3000 µg/mL in each case. Further, in data set [9], the “increase of promoter activity of pGAS-Luc” value is 1.8 fold. For the same compound, the “level of IFNα expression” value in the data set on IFNα expression is recorded as “dose-dependent increase”.
`O.Oc1cc(O)c2c(c1)O[C@H](c1ccc(O)c(O)c1)[C@@H](O)C2` [Catechin, catechin]: in data set [12], the CC50 (as a rule, the concentration giving 50% cytotoxicity) was greater than 3000 µg/mL.
For `COc1ccc([C@@H]2CC(=O)c3c(O)cc(O)cc3O2)cc1O` [Hesperetin, hesperetin], in [1], the “TI (ratio of CC50 to IC50)” value was determined as 159. In [1] (TE-671, 48 h), this compound displayed an IC50 of 3.6 ± 0.5 µg/mL (≈ 11.9 µM). This compound returned a CC50 at 48 h in [4] of 574 µg/mL (≈ 1900 µM).
Take `CC(C)=CC[C@@H](O)C1=CC(=O)c2c(O)ccc(O)c2C1=O` [Shikonin, shikonin]: the entries for the “TI (ratio of CC50 to IC50)” value in data set [1] and in data set [7] were 835.2 and greater than 2500, respectively. In addition, the IC50 in data set [1] (TE-671, 48 h) worked out at 2.1 ± 0.5 µg/mL (≈ 7.28 µM); in data set [7], 1.2 ± 0.2 µg/mL (≈ 4.16 µM). Moreover, the “inhibition … in cell culture assay” value in [1] is recorded as “dose-dependent inhibition”. The “increase of PKR mRNA” value in [2] is given as 1087 fold. Besides, the cytotoxic concentration (CC50) at 48 h in data set [4] is 1750 µg/mL (≈ 6080 µM); in [5], greater than 3000 µg/mL. Also, in data set [6], the “increase of OAS mRNA” value was determined as 5 fold. In [10], the “increase of promoter activity of pISRE-Luc” value is “ca. 1.2 fold”. Also, the “level of IFNα expression” value in the data set on IFNα expression is “dose-dependent increase”.
